Columns and labels:
[1] = UV absorption spectrum (sunscreen filtering range); assay type: physicochemical
Excerpt: Les composés de formule III conformes à la présente invention possèdent des propriétés de filtres solaires intéressants. Ils présentent un maximum d'efficacité tant au niveau de leur capacité d'absorption ultra-violette qu'à celui de leur fixation sur la peau. Leur spectre d'absorption se situe dans la zone des U.V.B. érythématogènes avec un maximum vers 310 nm; ils laissent passer les rayons U.V.A.

[2] = parameters: species or system lapin; conditions: in vivo
Excerpt: Une étude in vivo de la fixation des filtres soufrés de formules III et Il à la couche cornée a été réalisée sur la peau de lapin. Aucune trace d'acide para-méthoxycinnamique, métabolite de tout filtre solaire de formules III ou II, n'a pu être décelée dans le sang des lapins traités. La méthode d'analyse par chromatographie en phase gazeuse couplée à la spectrométrie de masse permet de déceler des concentrations de l'ordre de 10 pg. L'on peut donc en conclure que ces composés ne pénètrent pas dans le torrent circulatoire, contrairement au para-méthoxycinnamate d'éthyle-2-hexyle évoqué dans le préambule ainsi que les produits obtenus à partir du Brevet Pierre FABRE.
Le composé présentant des propriétés de filtre solaire, conforme à la présente invention est incorporé à la concentration 5% dans une émulsion qui peut avoir par exemple la composition suivante:
Méthode de recherche de l'acide para-méthoxycinnamique (métabolite) dans le sang de lapin après application des filtres solaires soufrés conformes à l'invention incorporé dans l'émulsion précédente. • - Conditions d'application et préjèvement plasmatiques
2 g d'émulsion à tester sont appliqués sur la peau épilée du lapin. […] Les mesures sont effectuées sur la fraction plasmatique. - Déterminations quantitatives en CPG(SM […]

Row | Structure (SMILES) | maximum d'absorption U.V. [1] [nm] | concentration d'acide para-méthoxycinnamique retrouvé dans le sang [2]
1 | COc1ccc(/C=C/C(=O)OCCS)cc1 [II, para-méthoxycinnamatede thio-2-éthanol] | 310 | 
2 | COc1ccc(/C=C/C(=O)OCCSSCC(N)C(=O)O)cc1 (stereo not drawn) [III (n = 2, m = 1, R2 = H et R1 = OH)] | 310 | 
3 | CCCCC(CC)COC(=O)C=Cc1ccc(OC)cc1 (stereo not drawn) [PMCEH, para-méthoxycinnamate d'éthyle-2 hexyle] |  | comprise entre le ng et plusieurs µg
